Test results taken from patent US20050239656A1, “Pyridine compounds or salts thereof and herbicides containing the same” (priority 2002, published 2005).

What was measured:
crabgrass = test: Test Example 2: soil surface treatment, upland pot test; type: in vivo, Digitaria sanguinalis L.; details: observed 20th to 28th day
Method in brief: (§1)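 Visual growth-control ratings (0 = untreated, 100 = complete kill) were taken 20–28 days after soil surface application. The spray was made one day post-sowing in upland soil pots, using formulated compound diluted with water at 1,500 L/ha at a set active ingredient rate.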

soybean = test: as above; type: in vivo, Glycine max Merr.; details: observed 20th to 28th day
Method in brief: as §1

velvetleaf = test: as above; type: in vivo, Abutilon theophrasti MEDIC.; details: observed 20th to 28th day
Method in brief: as §1

rice = test: as above; type: in vivo, Oryza sativa L.; details: observed 20th to 28th day
Method in brief: as §1

prickly sida = test: as above; type: in vivo, Sida spinosa L.; details: observed 20th to 28th day
Method in brief: as §1

redroot pigweed = test: as above; type: in vivo, Amaranthus retroflexus L.; details: observed 20th to 28th day
Method in brief: as §1

corn = test: as above; type: in vivo, Zea mays L.; details: observed 20th to 28th day
Method in brief: as §1

wheat = test: as above; type: in vivo, Triticum spp.; details: observed 20th to 28th day
Description: Upland field soil was put into a 1/170,000 ha pot, and seed of various plants (barnyardgrass, crabgrass, green foxtail, redroot pigweed, prickly sida, velvetleaf, rice, wheat, corn, soybean) were sown. On the 1st day after the sowing, a wettable powder or emulsifiable concentrate having the compound of the present invention formulated in accordance with a usual formulation method, was weighed so that the active ingredient would be a predetermined amount, and diluted with water in an amount of 1,500 L/ha. The herbicide thus adjusted was applied by a small size sprayer for soil surface treatment. On the 20th to 28th days after the application of the herbicide, the growth of the respective plants was visually observed, and the herbicidal effects were evaluated by the growth controlling degrees (%) ranging from 0 (equivalent to the non-treated plot) to 100 (complete kill), whereby the results shown in Table 4, were obtained.

barnyardgrass [1] = test: as above; type: in vivo, Echinochloa crus-galli L.; details: observed 20th to 28th day
Method in brief: as §1

green foxtail = test: as above; type: in vivo, Setaria viridis L.; details: observed 20th to 28th day
Method in brief: as §1

japanese bulrush = test: Test Example 3: paddy pot test, application under submerged conditions; type: in vivo, Scirpus juncoides; details: submerged application at 0.5 leaf stage, visually observed 14 days after application, 0 = non-treated, 100 = complete kill
Method in brief: (§2)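 Visual growth-control rating (0 = untreated, 100 = complete kill) 14 days after treatment. The formulated compound, as a diluted wettable powder or emulsifiable concentrate, went into 3–4 cm flood water at a predetermined active-ingredient dose once the weeds reached 0.5 leaf stage (wapato: primary leaf stage).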

barnyardgrass [2] = test: as above; type: in vivo, Echinochloa crus-galli L.; details: submerged application at 0.5 leaf stage, visually observed 14 days after application, 0 = non-treated, 100 = complete kill
Method in brief: as §2

rice (var. Nihonbare) = test: Test Example 3: paddy pot test, transplanted rice; type: in vivo, Oryza sativa L.; details: applied 4th day after transplantation, visually observed 21st day after application, 0 = non-treated, 100 = complete kill
Method in brief: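 Rice (var. Nihonbare) at 2 leaf stage transplanted 3 cm deep into puddled paddy soil under 3–4 cm flooding; on day 4 after transplanting, diluted wettable powder or emulsifiable concentrate applied by pipette under submerged conditions at a set active-ingredient dose. Growth scored visually 21 days after application, 0 (untreated) to 100 (complete kill) %.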

Compound: CC(C)C(c1cnccc1C(F)(F)F)N(C)S(=O)(=O)c1ccccc1Cl (racemic) [Compound I-126]
- Growth controlling degree (%) Crabgrass (crabgrass; active ingredient 500 g/ha): 30%
- Growth controlling degree (%) Soyabean (soybean; active ingredient 500 g/ha): 0%
- Growth controlling degree (%) Velvetleaf (velvetleaf; active ingredient 500 g/ha): 10%
- Growth controlling degree (%) Rice (rice; active ingredient 500 g/ha): 20%
- Growth controlling degree (%) Prickly sida (prickly sida; active ingredient 500 g/ha): 50%
- Growth controlling degree (%) Redroot pigweed (redroot pigweed; active ingredient 500 g/ha): 30%
- Growth controlling degree (%) Corn (corn; active ingredient 500 g/ha): 0%
- Growth controlling degree (%) wheat (wheat; active ingredient 500 g/ha): 10%
- Growth controlling degree (%) Barnyardgrass (barnyardgrass [1]; active ingredient 500 g/ha): 80%
- Growth controlling degree (%) Green foxtail (green foxtail; active ingredient 500 g/ha): 70%

Compound: CC(=Cc1ccccc1)C(=O)N(C)C(c1cnccc1C(F)(F)F)C(C)C (stereo not shown) [I-206]
- Growth controlling degree (%) Crabgrass (crabgrass; active ingredient 250 g/ha): 100%
- Growth controlling degree (%) Japanese bulrush (japanese bulrush; active ingredient 250 g/ha): 98%
- Growth controlling degree (%) Soyabean (soybean; active ingredient 250 g/ha): 20%
- Growth controlling degree (%) Velvetleaf (velvetleaf; active ingredient 250 g/ha): 40%
- Growth controlling degree (%) Barnyardgrass (barnyardgrass [2]; active ingredient 250 g/ha): 100%
- Growth controlling degree (%) Rice (rice; active ingredient 250 g/ha): 40%
- Growth controlling degree (%) Prickly sida (prickly sida; active ingredient 250 g/ha): 50%
- Growth controlling degree (%) Redroot pigweed (redroot pigweed; active ingredient 250 g/ha): 70%
- Growth controlling degree (%) Rice (rice (var. Nihonbare); active ingredient 250 g/ha): 10%
- Growth controlling degree (%) Corn (corn; active ingredient 250 g/ha): 30%
- Growth controlling degree (%) wheat (wheat; active ingredient 250 g/ha): 30%
- Growth controlling degree (%) Barnyardgrass (barnyardgrass [1]; active ingredient 250 g/ha): 100%
- Growth controlling degree (%) Green foxtail (green foxtail; active ingredient 250 g/ha): 100%

Compound: CC(C)C(c1cnccc1C(F)(F)F)N(C)S(=O)(=O)c1ccc(Br)cc1 (racemic) [I-136]
- Growth controlling degree (%) Crabgrass (crabgrass; active ingredient 250 g/ha): 90%
- Growth controlling degree (%) Japanese bulrush (japanese bulrush; active ingredient 250 g/ha): 70%
- Growth controlling degree (%) Soyabean (soybean; active ingredient 250 g/ha): 10%
- Growth controlling degree (%) Velvetleaf (velvetleaf; active ingredient 250 g/ha): 30%
- Growth controlling degree (%) Barnyardgrass (barnyardgrass [2]; active ingredient 250 g/ha): 100%
- Growth controlling degree (%) Rice (rice; active ingredient 250 g/ha): 50%
- Growth controlling degree (%) Prickly sida (prickly sida; active ingredient 250 g/ha): 50%
- Growth controlling degree (%) Redroot pigweed (redroot pigweed; active ingredient 250 g/ha): 10%
- Growth controlling degree (%) Rice (rice (var. Nihonbare); active ingredient 250 g/ha): 0%
- Growth controlling degree (%) Corn (corn; active ingredient 250 g/ha): 20%
- Growth controlling degree (%) wheat (wheat; active ingredient 250 g/ha): 10%
- Growth controlling degree (%) Barnyardgrass (barnyardgrass [1]; active ingredient 250 g/ha): 70%
- Growth controlling degree (%) Green foxtail (green foxtail; active ingredient 250 g/ha): 95%

Compound: CC(C)C(c1cnccc1C(F)(F)F)N(C)S(=O)(=O)C=Cc1ccccc1 (racemic) [I-135]
- Growth controlling degree (%) Crabgrass (crabgrass; active ingredient 500 g/ha): 70%
- Growth controlling degree (%) Japanese bulrush (japanese bulrush; active ingredient 500 g/ha): 100%
- Growth controlling degree (%) Soyabean (soybean; active ingredient 500 g/ha): 0%
- Growth controlling degree (%) Velvetleaf (velvetleaf; active ingredient 500 g/ha): 30%
- Growth controlling degree (%) Barnyardgrass (barnyardgrass [2]; active ingredient 500 g/ha): 98%
- Growth controlling degree (%) Rice (rice; active ingredient 500 g/ha): 20%
- Growth controlling degree (%) Prickly sida (prickly sida; active ingredient 500 g/ha): 50%
- Growth controlling degree (%) Redroot pigweed (redroot pigweed; active ingredient 500 g/ha): 20%
- Growth controlling degree (%) Rice (rice (var. Nihonbare); active ingredient 500 g/ha): 10%
- Growth controlling degree (%) Corn (corn; active ingredient 500 g/ha): 0%
- Growth controlling degree (%) wheat (wheat; active ingredient 500 g/ha): 10%
- Growth controlling degree (%) Barnyardgrass (barnyardgrass [1]; active ingredient 500 g/ha): 80%
- Growth controlling degree (%) Green foxtail (green foxtail; active ingredient 500 g/ha): 70%
